Measured values from patent US6852685B1, “Use of colostrinin, constituent peptides thereof, and analogs thereof to promote neuronal cell differentiation” (Board of Regents, The University of Texas System, priority 1999, dated 2005).
“Also recorded” adds a separate entry of the source.

System: medullary pheochromocytoma (PC12) cells
Test: Effect on morphology (differentiation) of PC12 cells
Format: cell-based
Settings: for Cell morphology: morphologies seen after treatment (list per substance, not tied to one concentration); for 1% FBS (cell differentiation) / 10% FBS (cell differentiation): six days after treatment
Description: Cells: PC12 cell line derived from medullary pheochromocytoma cells were used to undertake studies described bellow. PC 12 cells were obtained from the American Type Culture Collection and maintained in RPMI-1640 supplemented with 10% fetal bovine serum (HYCLONE Inc), penicillin (100 U/ml) and streptomycin (100 μg/ml).
Methods: To evaluate the effect of colostrum, colostrinin and its component peptides on cell differentiation 3×10^4 logarithmically replicating (70% confluence) PC12 cells were seeded in 24× well plates and cells were allowed to adhere and grow for 24 hours. Serum containing media were aspirated and replaced for serum-free RPMI containing appropriate amount of antibiotics. In four parallel, increasing concentrations (0.1, 1, 10 and 100 μg per ml) of colostrum, colostrinin and its component peptides were added directly into the media and incubated at 37° C. As a positive control, nerve growth factor (NGF) 7S (Gibco-BRL) was used at 100 ng per ml concentration (Chao, Cell, 69, 995-997 (1992); and Marshall et al., Cell 80, 179-185 (1995)). Phorbol 12-myristate 13-acetate (TPA: 10 ng per mil) was used as a negative control. Eight hours later the media were changed and RPMI-1640 was added containing 1% or 10% fetal bovine serum. The cultures were microscopically investigated 2nd, 4th and 6th days after treatment. Six days after treatment cells were fixed with paraformaldehyde (4%) and stained with 0.01% crystal violet solution. Excess of dyes were removed by ethanol washing. The final evaluation took place using a microscopy (Axiophot2 Zeiss Inc., Germany).

Compound	Cell morphology	1% FBS (cell differentiation) (0.1 μg/ml)	1% FBS (cell differentiation) (1.0 μg/ml)	1% FBS (cell differentiation) (10 μg/ml)	1% FBS (cell differentiation) (100 μg/ml)	10% FBS (cell differentiation) (0.1 μg/ml)	10% FBS (cell differentiation) (1.0 μg/ml)	10% FBS (cell differentiation) (100 μg/ml)	10% FBS (cell differentiation) (10 μg/ml)
CCCCCCCCCCCCCC(=O)O[C@@H]1[C@@H](C)[C@@]2(O)[C@@H](C=C(CO)C[C@]3(O)C(=O)C(C)=C[C@@H]23)[C@@H]2C(C)(C)[C@]12OC(C)=O [TPA, Phorbol 12-myristate 13-acetate, reference compound]	rounded								
DLEMPVLPVEPFPFV [SEQ ID NO:5]	fibroblast-like; also recorded: epitheloid; also recorded: neuron-like	− (− = ≦0.01% (back-ground))	− (− = ≦0.01% (back-ground))	− (− = ≦0.01% (back-ground))	− (− = ≦0.01% (back-ground))	− (− = ≦0.01% (back-ground))	− (− = ≦0.01% (back-ground))	+ (+ = 1%)	
DQPPDVEKPDLQPFQVQS [SEQ ID NO:3]	fibroblast-like; also recorded: neuron-like	− (− = ≦0.01% (back-ground))	− (− = ≦0.01% (back-ground))	− (− = ≦0.01% (back-ground))	− (− = ≦0.01% (back-ground))	− (− = ≦0.01% (back-ground))		+ (+ = 1%)	+ (+ = 1%)
LFFFLPVVNVLP [SEQ ID NO:4]	fibroblast-like; also recorded: epitheloid; also recorded: neuron-like	− (− = ≦0.01% (back-ground))	− (− = ≦0.01% (back-ground))	− (− = ≦0.01% (back-ground))	− (− = ≦0.01% (back-ground))	− (− = ≦0.01% (back-ground))	+ (+ = 1%)	++ (++ = 1-5%)	++ (++ = 1-5%)
LKPFPKLKVEVFPFP [SEQ ID NO:8]	fibroblast-like; also recorded: neuron-like	− (− = ≦0.01% (back-ground))	− (− = ≦0.01% (back-ground))	− (− = ≦0.01% (back-ground))	− (− = ≦0.01% (back-ground))	− (− = ≦0.01% (back-ground))	++ (++ = 1-5%)	− (− = ≦0.01% (back-ground))	+ (+ = 1%)
LQTPQPLLQVMMEPQGD [SEQ ID NO:2]	fibroblast-like; also recorded: neuron-like	− (− = ≦0.01% (back-ground))	− (− = ≦0.01% (back-ground))	+ (+ = 1%)	− (− = ≦0.01% (back-ground))		++ (++ = 1-5%)	+ (+ = 1%)	++ (++ = 1-5%)
MPQNFYKLPQM [SEQ ID NO:6]	fibroblast-like; also recorded: epitheloid	− (− = ≦0.01% (back-ground))	− (− = ≦0.01% (back-ground))	− (− = ≦0.01% (back-ground))	− (− = ≦0.01% (back-ground))	− (− = ≦0.01% (back-ground))		+ (+ = 1%)	+ (+ = 1%)
MQPPPLP [SEQ ID NO:1]	epitheloid; also recorded: neuron-like	− (− = ≦0.01% (back-ground))	− (− = ≦0.01% (back-ground))	− (− = ≦0.01% (back-ground))	− (− = ≦0.01% (back-ground))		+ (+ = 1%)		++ (++ = 1-5%)
VESYVPLFP [SEQ ID NO:31]	fibroblast-like; also recorded: neuron-like		− (− = ≦0.01% (back-ground))	− (− = ≦0.01% (back-ground))		− (− = ≦0.01% (back-ground))			
VLEMKFPPPPQETVT [SEQ ID NO:7]	fibroblast-like; also recorded: neuron-like	− (− = ≦0.01% (back-ground))	− (− = ≦0.01% (back-ground))	− (− = ≦0.01% (back-ground))	− (− = ≦0.01% (back-ground))	− (− = ≦0.01% (back-ground))	+ (+ = 1%)		+ (+ = 1%)
